In ChEMBL document CHEMBL1133304, “Design and synthesis of potent thiol-based inhibitors of endothelin converting enzyme-1” (Bioorg Med Chem Lett, 2000):
pIC50: −log10 of the molar value.

Columns and labels:
Rattus norvegicus [1] = assay: Intravenously injected compound (0.3 nmol/kg) was tested in rat for the inhibitory activity against endothelin-1 (ET-1) pressor response after 24 hour; format: functional
Rattus norvegicus [2] = assay: Intravenously injected compound (0.3 nmol/kg) was tested in rat for the inhibitory activity against endothelin-1 (ET-1) pressor response after 8 hour; format: functional
[3] = target: T1, Endothelin-converting enzyme 1 (Homo sapiens, UniProt P42892); assay: In vitro inhibition of human Endothelin converting Enzyme-1 activity
T1 sequence (P42892 whole entry): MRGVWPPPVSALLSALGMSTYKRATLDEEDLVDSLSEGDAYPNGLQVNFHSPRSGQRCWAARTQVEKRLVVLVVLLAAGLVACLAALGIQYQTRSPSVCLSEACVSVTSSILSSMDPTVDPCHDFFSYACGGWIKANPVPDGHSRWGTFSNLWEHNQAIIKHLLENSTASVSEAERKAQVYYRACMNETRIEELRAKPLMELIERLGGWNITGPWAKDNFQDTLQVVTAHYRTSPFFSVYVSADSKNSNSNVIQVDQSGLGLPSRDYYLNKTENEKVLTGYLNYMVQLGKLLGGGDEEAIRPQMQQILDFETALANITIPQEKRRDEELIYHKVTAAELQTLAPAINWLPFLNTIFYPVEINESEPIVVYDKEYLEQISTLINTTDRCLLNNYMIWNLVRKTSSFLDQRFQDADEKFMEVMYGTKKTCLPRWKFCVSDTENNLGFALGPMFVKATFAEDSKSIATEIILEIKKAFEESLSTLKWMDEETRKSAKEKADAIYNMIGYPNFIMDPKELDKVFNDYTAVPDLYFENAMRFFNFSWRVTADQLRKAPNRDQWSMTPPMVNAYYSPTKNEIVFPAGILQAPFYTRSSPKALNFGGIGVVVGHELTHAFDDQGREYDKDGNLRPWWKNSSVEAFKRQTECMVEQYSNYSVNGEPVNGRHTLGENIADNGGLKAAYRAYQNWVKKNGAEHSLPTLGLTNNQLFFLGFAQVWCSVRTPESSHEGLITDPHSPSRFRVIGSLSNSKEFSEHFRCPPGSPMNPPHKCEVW

Compound | Inhibition (Rattus norvegicus [1]) [%] | Inhibition (Rattus norvegicus [2]) [%] | pIC50 [3]
CCC[C@H](SC(C)=O)C(=O)NC1(C(=O)N[C@@H](Cc2ccc(-c3ccccc3)cc2)C(=O)OC)CCCC1 | 30 | 75 | –
CC(C)[C@H](S)C(=O)NC1(C(=O)N[C@@H](Cc2ccc(-c3ccccc3)cc2)C(=O)O)CCCC1 | – | – | 7.11
